# Patent US6737383B1, “Herbicidal oxadiazolidines” (priority 1999, dated 2004)
# Columns and labels:
# bedstraw = experiment: Test B pre/postemergence bedstraw; type: in vivo, Galium aparine
# In short: (§1)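 Test chemicals in a non-phytotoxic solvent mixture with surfactant were sprayed preemergence onto planted seeds and postemergence onto plants 2 to 18 cm tall (1- to 4-leaf stage). After twelve to sixteen days in a greenhouse, injury was visually rated against untreated controls from 0 (no effect) to 10 (complete control).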
# rice = experiment: Test B flood test rice; type: in vivo, Oryza sativa
# In short: (§2)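 Plants were grown to the 2-leaf stage before treatment with test chemical, then held in a greenhouse for twelve to sixteen days. Injury was visually rated against untreated controls on a 0–10 scale, where 0 is no effect and 10 is complete control.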
# purple nutsedge = experiment: Test B pre/postemergence purple nutsedge; type: in vivo, Cyperus rotundus
# In short: as §1
# giant foxtail = experiment: Test B pre/postemergence giant foxtail; type: in vivo, Setaria faberii
# In short: as §1
# bamyardgrass = experiment: Test B flood test barnyardgrass; type: in vivo, Echinochloa crus-galli
# In short: as §2
# wild oat = experiment: Test B pre/postemergence wild oat; type: in vivo, Avena fatua
# In short: as §1
# cocklebur = experiment: Test B pre/postemergence cocklebur; type: in vivo, Xanthium strumarium
# In short: as §1
# pigweed = experiment: Test B pre/postemergence pigweed; type: in vivo, Amaranthus retroflexus
# In short: as §1
# velvetleaf = experiment: Test B pre/postemergence velvetleaf; type: in vivo, Abutilon theophrasti
# In short: as §1
# smallflower flatsedge = experiment: Test B flood test smallflower flatsedge; type: in vivo, Cyperus difformis
# In short: as §2
# wheat = experiment: Test B pre/postemergence wheat; type: in vivo, Triticum aestivum
# In short: as §1
# surinam grass = experiment: Test B pre/postemergence surinam grass; type: in vivo, Brachiaria decumbens
# In short: as §1
# blackgrass = experiment: Test B pre/postemergence blackgrass; type: in vivo, Alopecurus myosuroides
# In short: as §1
# morningglory = experiment: Test B pre/postemergence morningglory; type: in vivo, Ipomoea hederacea
# In short: as §1
# crabgrass = experiment: Test B pre/postemergence crabgrass; type: in vivo, Digitaria sanguinalis
# In short: as §1
# soybean = experiment: Test B pre/postemergence soybean; type: in vivo, Glycine max
# In short: as §1
# [1] = Preemergence, Rate 62 g/ha, scale of 0 to 10 where 0 is no effect and 10 is complete control
# [2] = Preemergence, Rate 125 g/ha, 0 is no effect, 10 is complete control
# [3] = Preemergence, Rate 250 g/ha, scale 0 to 10, 0 is no effect, 10 is complete control
# [4] = Preemergence, Rate 500 g/ha, scale 0 to 10 (0 no effect, 10 complete control)
# [5] = Rate 62 g/ha, Postemergence, scale of 0 to 10 where 0 is no effect and 10 is complete control
# [6] = Rate 125 g/ha, Postemergence, scale 0 to 10
# [7] = Rate 500 g/ha, Postemergence, scale 0 to 10
# [8] = Rate 1000 g/ha, Preemergence, scale 0 to 10 (0 no effect, 10 complete control)
# [9] = Rate 2000 g/ha, Preemergence, scale 0 to 10
# [10] = Rate 62 g/ha, headed Pre-emergence (flood test species), scale 0 to 10 (0 no effect, 10 complete control)
# [11] = Rate 125 g/ha, Pre-emergence, flood test species, scale 0 to 10 where 0 is no effect and 10 is complete control
# [12] = Rate 250 g/ha, Pre-emergence, flood-test species, scale 0 to 10, 0 is no effect, 10 is complete control
# [13] = Rate 500 g/ha, headed Pre-emergence (flood test species), scale 0 to 10 (0 no effect, 10 complete control)
# [14] = Rate 1000 g/ha, Pre-emergence (as headed), scale 0 to 10
# [15] = Rate 2000 g/ha, Pre-emergence (as headed), scale 0 to 10
# [16] = Postemergence, Rate 1000 g/ha, scale 0 to 10 (0 no effect, 10 complete control)
# [17] = Rate 2000 g/ha, Postemergence, scale 0 to 10
smiles,measurement,setting,value
CCN(C(=O)n1oc(=O)n(N(C)c2ccccc2)c1=O)C1CCCCC1 [Compound 183],Bedstraw plant response rating,bedstraw; [1],0
same,Bedstraw plant response rating (0 to 10 scale),bedstraw; [2],0
same,Bedstraw plant response rating,bedstraw; [3],0
same,Bedstraw plant response rating,bedstraw; [4],7
same,Bedstraw plant response rating,bedstraw; [5],0
same,Bedstraw plant response rating,bedstraw; [6],0
same,"Plant response rating (0 to 10; 0 is no effect, 10 is complete control), Bedstraw","bedstraw; Rate 250 g/ha, Postemergence",7
same,Bedstraw plant response rating,bedstraw; [7],3
same,"Plant response rating, Bedstraw",bedstraw; [8],7
same,Bedstraw plant response rating,bedstraw; [9],10
same,Rice plant response rating,rice; [10],0
same,Rice plant response rating,rice; [11],0
same,Rice plant response rating,rice; [12],0
same,"Plant response rating, Rice",rice; [13],0
same,Rice plant response rating,rice; [14],0
same,Rice plant response rating,rice; [15],0
same,Nutsedge plant response rating,purple nutsedge; [16],0
same,Nutsedge plant response rating,purple nutsedge; [1],0
same,Nutsedge plant response rating (0 to 10 scale),purple nutsedge; [2],0
same,Nutsedge plant response rating,purple nutsedge; [3],0
same,Nutsedge plant response rating,purple nutsedge; [4],0
same,Nutsedge plant response rating,purple nutsedge; [5],0
same,Nutsedge plant response rating,purple nutsedge; [6],0
same,"Plant response rating (0 to 10; 0 is no effect, 10 is complete control), Nutsedge","purple nutsedge; Rate 250 g/ha, Postemergence",0
same,Nutsedge plant response rating,purple nutsedge; [7],0
same,"Plant response rating, Nutsedge",purple nutsedge; [8],0
same,Nutsedge plant response rating,purple nutsedge; [17],0
same,Nutsedge plant response rating,purple nutsedge; [9],0
same,Giant foxtail plant response rating,giant foxtail; [16],0
same,Giant foxtail plant response rating,giant foxtail; [1],0
same,Giant foxtail plant response rating (0 to 10 scale),giant foxtail; [2],0
same,Giant foxtail plant response rating,giant foxtail; [3],0
same,Giant foxtail plant response rating,giant foxtail; [4],3
same,Giant foxtail plant response rating,giant foxtail; [5],0
same,Giant foxtail plant response rating,giant foxtail; [6],0
same,"Plant response rating (0 to 10; 0 is no effect, 10 is complete control), Giant foxtail","giant foxtail; Rate 250 g/ha, Postemergence",0
same,Giant foxtail plant response rating,giant foxtail; [7],0
same,"Plant response rating, Giant foxtail",giant foxtail; [8],6
same,Giant foxtail plant response rating,giant foxtail; [17],0
same,Giant foxtail plant response rating,giant foxtail; [9],9
same,Barnyardgrass plant response rating,bamyardgrass; [10],0
same,Barnyardgrass plant response rating,bamyardgrass; [11],0
same,Barnyardgrass plant response rating,bamyardgrass; [12],0
same,"Plant response rating, Barnyardgrass",bamyardgrass; [13],0
same,Barnyardgrass plant response rating,bamyardgrass; [14],0
same,Barnyardgrass plant response rating,"bamyardgrass; Rate 2000 g/ha, Pre-emergence (as headed), scale 0 to 10, 0 no effect, 10 complete control",0
same,Wild oats plant response rating,wild oat; [16],0
same,Wild oats plant response rating,wild oat; [1],0
same,Wild oats plant response rating,wild oat; [3],0
same,Wild oats plant response rating,wild oat; [4],0
same,Wild oats plant response rating,wild oat; [6],0
same,"Plant response rating (0 to 10; 0 is no effect, 10 is complete control), Wild oats","wild oat; Rate 250 g/ha, Postemergence",0
same,Wild oats plant response rating,wild oat; [7],0
same,"Plant response rating, Wild oats",wild oat; [8],0
same,Wild oats plant response rating,wild oat; [17],0
same,Wild oats plant response rating,wild oat; [9],3
same,Cocklebur plant response rating,cocklebur; [16],0
same,Cocklebur plant response rating,cocklebur; [1],0
same,Cocklebur plant response rating (0 to 10 scale),cocklebur; [2],0
same,Cocklebur plant response rating,cocklebur; [3],0
same,Cocklebur plant response rating,cocklebur; [4],0
same,Cocklebur plant response rating,cocklebur; [5],0
same,Cocklebur plant response rating,cocklebur; [6],0
same,"Plant response rating (0 to 10; 0 is no effect, 10 is complete control), Cocklebur","cocklebur; Rate 250 g/ha, Postemergence",0
same,Cocklebur plant response rating,cocklebur; [7],0
same,"Plant response rating, Cocklebur",cocklebur; [8],0
same,Cocklebur plant response rating,cocklebur; [17],2
same,Cocklebur plant response rating,cocklebur; [9],0
same,Redroot pigweed plant response rating,pigweed; [16],0
same,Redroot pigweed plant response rating,pigweed; [1],0
same,Redroot pigweed plant response rating (0 to 10 scale),pigweed; [2],0
same,Redroot pigweed plant response rating,pigweed; [3],0
same,Redroot pigweed plant response rating,pigweed; [4],0
same,Redroot pigweed plant response rating,pigweed; [5],0
same,Redroot pigweed plant response rating,pigweed; [6],0
same,"Plant response rating (0 to 10; 0 is no effect, 10 is complete control), Redroot pigweed","pigweed; Rate 250 g/ha, Postemergence",0
same,Redroot pigweed plant response rating,pigweed; [7],0
same,"Plant response rating, Redroot pigweed",pigweed; [8],0
same,Redroot pigweed plant response rating,pigweed; [17],0
same,Redroot pigweed plant response rating,pigweed; [9],0
same,Velvetleaf plant response rating,velvetleaf; [16],1
same,Velvetleaf plant response rating,velvetleaf; [1],0
same,Velvetleaf plant response rating,velvetleaf; [3],0
same,Velvetleaf plant response rating,velvetleaf; [4],0
same,Velvetleaf plant response rating,velvetleaf; [6],0
same,"Plant response rating (0 to 10; 0 is no effect, 10 is complete control), Velvetleaf","velvetleaf; Rate 250 g/ha, Postemergence",0
same,Velvetleaf plant response rating,velvetleaf; [7],0
same,"Plant response rating, Velvetleaf",velvetleaf; [8],0
same,Velvetleaf plant response rating,velvetleaf; [17],1
same,Velvetleaf plant response rating,velvetleaf; [9],0
same,S. Flatsedge plant response rating,"smallflower flatsedge; Pre-emergence, Rate 1000 g/ha, scale 0 to 10 (0 no effect, 10 complete control)",0
same,S. Flatsedge plant response rating,smallflower flatsedge; [10],0
same,S. Flatsedge plant response rating,smallflower flatsedge; [11],0
same,S. Flatsedge plant response rating,smallflower flatsedge; [12],0
same,S. Flatsedge plant response rating,"smallflower flatsedge; Rate 500 g/ha, Pre-emergence, flood test species, scale 0 to 10 (0 no effect, 10 complete control)",0
same,S. Flatsedge plant response rating,smallflower flatsedge; [15],0
same,Wheat plant response rating,wheat; [16],0
same,Wheat plant response rating,wheat; [1],0
same,Wheat plant response rating,wheat; [3],0
same,Wheat plant response rating,wheat; [4],0
same,Wheat plant response rating,wheat; [6],0
same,"Plant response rating (0 to 10; 0 is no effect, 10 is complete control), Wheat","wheat; Rate 250 g/ha, Postemergence",0
same,Wheat plant response rating,wheat; [7],0
same,"Plant response rating, Wheat",wheat; [8],0
same,Wheat plant response rating,wheat; [17],0
same,Wheat plant response rating,wheat; [9],0
same,B. signalgrass plant response rating,surinam grass; [16],0
same,B. signalgrass plant response rating,surinam grass; [1],0
same,B. signalgrass plant response rating (0 to 10 scale),surinam grass; [2],0
same,B. signalgrass plant response rating,surinam grass; [3],4
same,B. signalgrass plant response rating,surinam grass; [4],4
same,B. signalgrass plant response rating,surinam grass; [5],0
same,B. signalgrass plant response rating,"surinam grass; Rate 125 g/ha, Postemergence, scale 0 (no effect) to 10 (complete control)",0
same,"Plant response rating, B. signalgrass","surinam grass; Rate 250 g/ha, Postemergence, scale 0 to 10, 0 is no effect, 10 is complete control",0
same,B. signalgrass plant response rating,"surinam grass; Rate 500 g/ha, Postemergence, scale 0 to 10, 0 no effect, 10 complete control",0
same,"Plant response rating, B. signalgrass",surinam grass; [8],0
same,B. signalgrass plant response rating,surinam grass; [17],0
same,B. signalgrass plant response rating,surinam grass; [9],2
same,Blackgrass plant response rating,blackgrass; [16],0
same,Blackgrass plant response rating,blackgrass; [1],0
same,Blackgrass plant response rating (0 to 10 scale),blackgrass; [2],0
same,Blackgrass plant response rating,blackgrass; [3],0
same,Blackgrass plant response rating,blackgrass; [4],0
same,Blackgrass plant response rating,blackgrass; [5],0
same,Blackgrass plant response rating,blackgrass; [6],0
same,"Plant response rating (0 to 10; 0 is no effect, 10 is complete control), Blackgrass","blackgrass; Rate 250 g/ha, Postemergence",0
same,Blackgrass plant response rating,blackgrass; [7],0
same,"Plant response rating, Blackgrass",blackgrass; [8],1
same,Blackgrass plant response rating,blackgrass; [17],0
same,Blackgrass plant response rating,blackgrass; [9],2
same,Morningglory plant response rating,morningglory; [16],4
same,Morningglory plant response rating,morningglory; [1],0
same,Morningglory plant response rating (0 to 10 scale),morningglory; [2],0
same,Morningglory plant response rating,morningglory; [3],0
same,Morningglory plant response rating,morningglory; [4],0
same,Morningglory plant response rating,morningglory; [5],0
same,Morningglory plant response rating,morningglory; [6],0
same,"Plant response rating (0 to 10; 0 is no effect, 10 is complete control), Morningglory","morningglory; Rate 250 g/ha, Postemergence",1
same,Morningglory plant response rating,morningglory; [7],2
same,"Plant response rating, Morningglory",morningglory; [8],0
same,Morningglory plant response rating,morningglory; [17],5
same,Morningglory plant response rating,morningglory; [9],0
same,Crabgrass plant response rating,crabgrass; [16],0
same,Crabgrass plant response rating,crabgrass; [1],0
same,Crabgrass plant response rating (0 to 10 scale),crabgrass; [2],0
same,Crabgrass plant response rating,crabgrass; [3],0
same,Crabgrass plant response rating,crabgrass; [4],3
same,Crabgrass plant response rating,crabgrass; [5],0
same,Crabgrass plant response rating,crabgrass; [6],0
same,"Plant response rating (0 to 10; 0 is no effect, 10 is complete control), Crabgrass","crabgrass; Rate 250 g/ha, Postemergence",0
same,Crabgrass plant response rating,crabgrass; [7],0
same,"Plant response rating, Crabgrass",crabgrass; [8],0
same,Crabgrass plant response rating,crabgrass; [17],0
same,Crabgrass plant response rating,crabgrass; [9],2
same,Soybean plant response rating,soybean; [16],2
same,Soybean plant response rating,soybean; [1],0
same,Soybean plant response rating (0 to 10 scale),soybean; [2],0
same,Soybean plant response rating,soybean; [3],0
same,Soybean plant response rating,soybean; [4],0
same,Soybean plant response rating,soybean; [5],0
same,Soybean plant response rating,soybean; [6],1
same,"Plant response rating (0 to 10; 0 is no effect, 10 is complete control), Soybean","soybean; Rate 250 g/ha, Postemergence",2
same,Soybean plant response rating,soybean; [7],2
same,"Plant response rating, Soybean",soybean; [8],0
same,Soybean plant response rating,soybean; [17],3
same,Soybean plant response rating,soybean; [9],0
